Reference: ChEMBL document CHEMBL4428037 (J Med Chem, 2016)
The source made the active and inactive calls. The calls are words filed in the database; no cut-off is given here.

What was measured:
Tubulin (Sus scrofa) = Tubulin (Sus scrofa) (UniProt P02554+P02550); experiment: Displacement of [3H]colchicine from biotinylated porcine tubulin at 1 uM incubated for 2 hrs by competition scintillation proximity; assay type: protein assay
[1] = target: Tubulin alpha (Homo sapiens) (UniProt P0DPH7+P68366+Q71U36+P68363+Q9BQE3+Q6PEY2+A6NHL2+Q9NY65); experiment: Inhibition of alpha tubulin polymerization in human A549 cells assessed as induction of cell border shrinkage of microtubules at 40 nM by Immunofluorescent staining based fluorescence microscopy
A549 [2] = experiment: Reduction in p-cdc2 expression in human A549 cells incubated for 24 hrs by Western blotting; assay type: functional, cell-based
A549 [3] = experiment: Induction of apoptosis in human A549 cells assessed as induction of chromatin condensation at 40 nM incubated for 24 hrs microscopy; assay type: functional, cell-based
A549 [4] = experiment: Induction of apoptosis in human A549 cells assessed as late apoptotic cells level at 10 nM incubated for 24 hrs by Annexin V-FITC/PI staining based FACS flow cytometry (reference value: 2.15%); assay type: functional
A549 [5] = experiment: Induction of apoptosis in human A549 cells assessed as necrotic cells level at 10 nM incubated for 24 hrs by Annexin V-FITC/PI staining based FACS flow cytometry (reference value: 0.37%); assay type: functional
A549 [6] = experiment: Induction of apoptosis in human A549 cells assessed as early apoptotic cells level at 20 nM incubated for 24 hrs by Annexin V-FITC/PI staining based FACS flow cytometry (reference value: 0.65%); assay type: functional
A549 [7] = experiment: Induction of apoptosis in human A549 cells assessed as necrotic cells level at 40 nM incubated for 24 hrs by Annexin V-FITC/PI staining based FACS flow cytometry (reference value: 0.37%); assay type: functional
A549 [8] = experiment: Induction of apoptosis in human A549 cells assessed as increase in cleaved caspase-3 level incubated for 24 hrs by Western blotting; assay type: functional, cell-based
HUVEC [9] = experiment: Toxicity in HUVEC assessed as effect on cell proliferation at 10 to 40 nM incubated for 8 hrs; assay type: cell-based; details: human, 0.04 µM
HUVEC [10] = experiment: Inhibition of capillary tube formation in HUVEC assessed as reduction in tube-like structures formation at 40 nM incubated for 8 hrs by fluorescence microscopy based 3D-matrigel assay; assay type: functional; details: Homo sapiens
[11] = Toxicity in human NSCLC xenografted Balb/c-nu mouse assessed as induction of adverse effects at 12.5 mg/kg, ip dosed every day for 21 consecutive days; assay type: organism-based; details: in vivo
[12] = Toxicity in human NSCLC xenografted Balb/c-nu mouse assessed as induction of adverse effects at 50 mg/kg, ip dosed every day for 21 consecutive days; assay type: organism-based; details: in vivo

CCOc1cccc(Nc2nn(C)c3c2Cc2cc(OCC)c(OCC(N)=O)cc2-3)c1
inhibition (Tubulin (Sus scrofa)): 37%
inhibition [1]: Active
Activity (A549 [2]): Dose-dependent effect
Activity (A549 [3]): Active
Activity (A549 [4]): 2.7%
Activity (A549 [5]): 0.62%
Activity (A549 [6]): 3.78%
Activity (A549 [7]): 1.23%
Activity (A549 [8]): Dose-dependent effect
Activity (HUVEC [9]): Non-Toxic
inhibition at 0.04 µM (HUVEC [10]): 69%
Activity [11]: Non-Toxic
Activity [12]: Non-Toxic
